Twelve compounds from US20230131899A1, “INHIBITORS OF MICROBIALLY INDUCED AMYLOID” (Axial Therapeutics, Inc., priority 2020, published 2023) can be followed below.

Where two headings read alike, the source gives them in different places.

Assay [1] has as its target T1, E. coli CsgA (Escherichia coli, UniProt P28307).
T1 construct: made in house; host or cells: E. coli NEB 3016 slyD::kan, pET11d
The assay is described as follows: In vitro ThioflavinT assay of CsgA aggregation (CsgA ThT Assay). The class given is biochemical. The method, boiled down:
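Purified C-terminal His-tagged CsgA, monomerised by desalting and 30-kDa filtration, at 2-20 μM with 20-40 μM ThT in 50 mM potassium phosphate pH 7.3, 1% DMSO, compounds 3.125-200 uM; room temperature, fluorescence (ex 438/em 495 nm) read every 15 min. Background-subtracted signal expressed as percent inhibition versus vehicle at 6-6.5 or 8-9 h, or as percent control AUC.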

Assay [2] deals with CsgA gene expression (csgBAC promoter-GFP reporter) in E. coli UTI89. The assay is described as follows: In vitro live cell fluorescent reporter assay of CsgA transcription (Reporter Assay). The assay is classed as cell-based. As to conditions: Escherichia coli. The method, boiled down:
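Compounds at 0.14–100 μM (1% DMSO final) incubated 20 h at 27 °C in YESCA broth with UTI89 carrying a single-copy GFP reporter under the csgBAC intergenic promoter region, inoculum OD600 0.003. Fluorescence normalized to vehicle wells gave IC50 and 50%-of-vehicle concentration; OD600 reduction >10% flagged growth impact.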
(In general: In a reporter assay the amount or activity of a reporter protein is the signal.)

Where [3] appears, read: read-out: CsgA ThT Assay (2 μM CsgA) % Control Bmax 25 μM, activity range, class symbol, CsgA 2 μM, white plates, compound 25 μM.
The mark [4] stands for this setting: read-out: CsgA ThT Assay (2 μM CsgA) % Control Bmax 25 μM, mean Bmax as percentage of DMSO control, CsgA 2 μM, white plates, compound 25 μM.
The mark [5] stands for this setting: read-out: CsgA ThT Assay (2 μM CsgA) % Control Bmax 100 μM, activity range, class symbol, CsgA 2 μM, white plates, compound 100 μM.
[6] abbreviates: read-out: CsgA ThT Assay (2 μM CsgA) % Control Bmax 100 μM, mean Bmax as percentage of DMSO control, CsgA 2 μM, white plates, compound 100 μM.
Setting [7] is: read-out: Reporter Assay Abs IC50 (μM), median Abs IC50 in the CsgA reporter assay, N/A = maximum expression reduction is <50% of control.
The mark [8] stands for this setting: read-out: Reporter Assay Abs IC50, activity range, class symbol.
[9] abbreviates: read-out: CsgA ThT Assay (10 μM CsgA) % Control AUC at 1005 minutes, 25 μM (activity range), CsgA 10 μM, black plates, compound 25 μM, 1005 minutes, class symbol.
Where [10] appears, read: read-out: CsgA ThT Assay (10 μM CsgA) % Control AUC at 1005 minutes, 25 μM, mean AUC as % of DMSO control, CsgA 10 μM, black plates, compound 25 μM, 1005 minutes.
Where [11] appears, read: read-out: CsgA ThT Assay (10 μM CsgA) % Control AUC at 1005 minutes, 100 μM (activity range), CsgA 10 μM, black plates, compound 100 μM, 1005 minutes, class symbol.
Setting [12] is: read-out: CsgA ThT Assay (10 μM CsgA) % Control AUC at 1005 minutes, 100 μM, mean AUC as % of DMSO control, CsgA 10 μM, black plates, compound 100 μM, 1005 minutes.
Setting [13] is: read-out: Reporter Assay Abs IC50 (activity range), median Abs IC50 in the CsgA reporter assay, class symbol.
The mark [14] stands for this setting: mean AUC as % of DMSO control, CsgA 10 μM, black plates, compound 100 μM, 1005 minutes.

T1 sequence (P28307 23-151): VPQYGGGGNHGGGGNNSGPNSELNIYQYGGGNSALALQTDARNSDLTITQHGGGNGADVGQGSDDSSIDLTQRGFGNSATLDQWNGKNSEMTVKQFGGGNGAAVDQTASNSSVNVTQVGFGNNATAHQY

`CN1CC(C(=O)O)n2c1c(-c1cccc(C(F)(F)F)c1)c(C(F)(F)c1cccc3ccccc13)cc2=O` (centres unmarked) [Compound 135, 7-(difluoro(naphthalen-1-yl)methyl)-1-methyl-5-oxo-8-(3-(trifluoromethyl)phenyl)-1,2,3,5-tetrahydroimidazo[1,2-a]pyridine-3-carboxylic acid]: the figures for the remaining activity at 25 µM in assay [1] (setting [3]) and in assay [1] (setting [4]) were greater than 60% and 88%, respectively. Further, the figures for the remaining activity at 100 µM in assay [1] (setting [5]) and in assay [1] (setting [6]) were greater than 60% and 67%, respectively. Further, the 50% inhibitory concentration (IC50) (in general, the concentration needed to halve the response being measured) was 4 µM in assay [2] (setting [7]) and 1.3 to 4.5 µM in assay [2] (setting [8]).

As to `CN1CC(C(=O)O)n2c(c(-c3cccc(C(F)(F)F)c3)c(Cc3cccc4ccccc34)c(N3CCNCC3)c2=O)S1(=O)=O` (centres unmarked) [Compound 102, 2-methyl-8-(naphthalen-1-ylmethyl)-6-oxo-7-(piperazin-1-yl)-9-(3-(trifluoromethyl)phenyl)-3,4-dihydro-2H,6H-pyrido[1,2-e][1,2,5]thiadiazine-4-carboxylic acid 1,1-dioxide], the remaining activity at 25 µM in assay [1] (setting [9]) is greater than 60%; in assay [1] (setting [10]), 90%. Besides, the remaining activity at 100 µM in assay [1] (setting [11]) was 31 to 60%; in assay [1] (setting [12]), 57%. For the same compound, the IC50 in assay [2] (setting [13]) was 4.6 to 10 µM; in assay [2] (setting [7]), 5.4 µM.

Regarding `O=C(O)C1CN(Cc2ccccc2)c2c(-c3cccc(C(F)(F)F)c3)c(Cc3ccnc4ccccc34)c(Cl)c(=O)n21` (centres unmarked) [Compound 206, 1-benzyl-6-chloro-5-oxo-7-(quinolin-4-ylmethyl)-8-(3-(trifluoromethyl)phenyl)-1,2,3,5-tetrahydroimidazo[1,2-a]pyridine-3-carboxylic acid], the values for the remaining activity at 25 µM in assay [1] (setting [3]) and in assay [1] (setting [4]) were greater than 60% and 64%, respectively. For the same compound, the remaining activity at 100 µM in assay [1] (setting [5]) was 31 to 60%; in assay [1] (setting [6]), 54%. The IC50 in assay [2] (setting [7]) was 13.2 µM; in assay [2] (setting [8]), greater than 10 µM.

Turning to `COc1ccc(CN2C[C@H](C(=O)O)n3c(c(-c4cccc(C(F)(F)F)c4)c(Cc4cccc5ccccc45)cc3=O)S2(=O)=O)cc1` (single isomer, unassigned) [Compound 026b], the remaining activity at 25 µM is 31 to 60% in assay [1] (setting [9]) and 47% in assay [1] (setting [10]). Moreover, the IC50 in assay [2] (setting [13]) was 1.3 to 4.5 µM; in assay [2] (setting [7]), 2.8 µM.

`CCCCN1CC(C(=O)O)n2c(c(-c3cccc(C(F)(F)F)c3)c(Cc3cccc4ccccc34)cc2=O)S1(=O)=O` (single isomer, unassigned) [Compound 021a, 2-butyl-8-(naphthalen-1-ylmethyl)-6-oxo-9-(3-(trifluoromethyl)phenyl)-3,4-dihydro-2H,6H-pyrido[1,2-e][1,2,5]thiadiazine-4-carboxylic acid 1,1-dioxide]: the “CsgA ThT Assay (10 μM CsgA) % Control AUC at 1005 minutes, 100 μM” value in assay [1] (setting [14]) was found to be 73%. Besides, the remaining activity at 25 µM is 31 to 60% in assay [1] (setting [9]) and 36% in assay [1] (setting [10]). For the same compound, the remaining activity at 100 µM in assay [1] (setting [11]) was greater than 60%. Also, the IC50 was 1.3 to 4.5 µM in assay [2] (setting [13]) and 3.3 µM in assay [2] (setting [7]).

In the case of `O=C(O)C1CS(=O)(=O)c2c(-c3cccc(C(F)(F)F)c3)c(Cc3cccc4ccccc34)cc(=S)n21` (single isomer, unassigned) [Compound 014b, 7-(naphthalen-1-ylmethyl)-5-thioxo-8-(3-(trifluoromethyl)phenyl)-2,3-dihydro-5H-thiazolo[3,2-a]pyridine-3-carboxylic acid 1,1-dioxide], in assay [1] (CsgA 10 μM, black plates, compound 25 μM, 1005 minutes, class symbol), the “CsgA ThT Assay (10 μM CsgA) % Control AUC at 1005 minutes, 25 μM (activity range)” value is listed as “(+) (% control AUC of greater than 60%)”. Also, the “CsgA ThT Assay (10 μM CsgA) % Control AUC at 1005 minutes, 100 μM (activity range)” value in assay [1] (CsgA 10 μM, black plates, compound 100 μM, 1005 minutes, class symbol) was “(+++) (% control AUC of 11 to 31%)”. In addition, the “CsgA ThT Assay (10 μM CsgA) % Control AUC at 1005 minutes, 25 μM” value in assay [1] (mean AUC as % of DMSO control, CsgA 10 μM, black plates, compound 25 μM, 1005 minutes) was found to be 71%. In assay [1] (setting [14]), the “CsgA ThT Assay (10 μM CsgA) % Control AUC at 1005 minutes, 100 μM” value turned out to be 26%. The IC50 in assay [2] (setting [13]) was greater than 10 µM; in assay [2] (setting [7]), 44 µM.

For the compound `O=C(O)C1CN(CCCCO)S(=O)(=O)c2c(-c3cccc(C(F)(F)F)c3)c(Cc3cccc4ccccc34)cc(=O)n21` (centres unmarked) [Compound 085, 2-(4-hydroxybutyl)-8-(naphthalen-1-ylmethyl)-6-oxo-9-(3-(trifluoromethyl)phenyl)-3,4-dihydro-2H,6H-pyrido[1,2-e][1,2,5]thiadiazine-4-carboxylic acid 1,1-dioxide], the remaining activity at 25 µM was 31 to 60% in assay [1] (setting [9]) and 52% in assay [1] (setting [10]). The remaining activity at 100 µM in assay [1] (setting [11]) is 11 to 31%; in assay [1] (setting [12]) it was 18%. The IC50 in assay [2] (setting [13]) was greater than 10 µM; in assay [2] (setting [7]), 15.3 µM.

For the compound `CN(C)Cc1c(Cc2cccc3ccccc23)c(-c2cccc(C(F)(F)F)c2)c2n(c1=O)C(C(=O)O)CN2Cc1ccccc1` (centres unmarked) [Compound 204, 1-benzyl-6-((dimethylamino)methyl)-7-(naphthalen-1-ylmethyl)-5-oxo-8-(3-(trifluoromethyl)phenyl)-1,2,3,5-tetrahydroimidazo[1,2-a]pyridine-3-carboxylic acid], the remaining activity at 100 µM in assay [1] (setting [5]) was greater than 60%; in assay [1] (setting [6]) it was 71%. Moreover, the values for the IC50 in assay [2] (setting [7]) and in assay [2] (setting [8]) were 1.9 µM and 1.3 to 4.5 µM, respectively.

For the compound `O=C(O)C1CN(CC2CCCC2)S(=O)(=O)c2c(-c3cccc(C(F)(F)F)c3)c(Cc3cccc4ccccc34)c(NC3CCCC3)c(=O)n21` (centres unmarked) [Compound 002, 7-(cyclopentylamino)-2-(cyclopentylmethyl)-8-(naphthalen-1-ylmethyl)-6-oxo-9-(3-(trifluoromethyl)phenyl)-3,4-dihydro-2H,6H-pyrido[1,2-e][1,2,5]thiadiazine-4-carboxylic acid 1,1-dioxide], the remaining activity at 25 µM in assay [1] (setting [3]) was 31 to 60%; in assay [1] (setting [4]) it was 60%. Besides, the remaining activity at 100 µM in assay [1] (setting [5]) was greater than 60%; in assay [1] (setting [6]), 137%. Besides, the IC50 in assay [2] (setting [7]) is 4.1 µM; in assay [2] (setting [8]) it was 1.3 to 4.5 µM.

Consider `CC(C)(C)c1ccc(CN2CC(C(=O)O)n3c2c(-c2cccc(C(F)(F)F)c2)c(Cc2cccc4ccccc24)c(Cl)c3=O)cc1` (centres unmarked) [Compound 208, 1-(4-(tert-butyl)benzyl)-6-chloro-7-(naphthalen-1-ylmethyl)-5-oxo-8-(3-(trifluoromethyl)phenyl)-1,2,3,5-tetrahydroimidazo[1,2-a]pyridine-3-carboxylic acid], for which the results for the remaining activity at 25 µM in assay [1] (setting [3]) and in assay [1] (setting [4]) were 31 to 60% and 46%, respectively. The figures for the remaining activity at 100 µM in assay [1] (setting [5]) and in assay [1] (setting [6]) were 11 to 31% and 25%, respectively. The IC50 in assay [2] (setting [7]) is 1 µM; in assay [2] (setting [8]), less than 1.3 µM.

As to `O=C(O)C1CN(CCO)S(=O)(=O)c2c(-c3cccc(C(F)(F)F)c3)c(Cc3cccc4ccccc34)cc(=O)n21` (centres unmarked) [Compound 084, 2-(2-hydroxyethyl)-8-(naphthalen-1-ylmethyl)-6-oxo-9-(3-(trifluoromethyl)phenyl)-3,4-dihydro-2H,6H-pyrido[1,2-e][1,2,5]thiadiazine-4-carboxylic acid 1,1-dioxide], the values for the remaining activity at 25 µM in assay [1] (setting [9]) and in assay [1] (setting [10]) were 31 to 60% and 57%, respectively. The remaining activity at 100 µM in assay [1] (setting [11]) is 11 to 31%; in assay [1] (setting [12]), 19%. In addition, the results for the IC50 in assay [2] (setting [13]) and in assay [2] (setting [7]) were greater than 10 µM and 27 µM, respectively.

Consider `Nc1c(Cc2cccc3ccccc23)c(-c2cccc(C(F)(F)F)c2)c2n(c1=O)C(C(=O)O)CN(CCCCCO)S2(=O)=O` (centres unmarked) [Compound 100, 7-amino-2-(5-hydroxypentyl)-8-(naphthalen-1-ylmethyl)-6-oxo-9-(3-(trifluoromethyl)phenyl)-3,4-dihydro-2H,6H-pyrido[1,2-e][1,2,5]thiadiazine-4-carboxylic acid 1,1-dioxide], for which the remaining activity at 25 µM is 31 to 60% in assay [1] (setting [9]) and 41% in assay [1] (setting [10]). Moreover, the results for the remaining activity at 100 µM in assay [1] (setting [11]) and in assay [1] (setting [12]) were 31 to 60% and 31%, respectively. The IC50 is greater than 10 µM in assay [2] (setting [13]) and 14.5 µM in assay [2] (setting [7]).
